“Also recorded” adds a separate entry of the source.
Assays:
[1] = controlled studies; cited from earlier work
[2] = administered IP or IV; cited from earlier work
[3] = in vivo; cited from earlier work
[4] = Example 1: tolerability study of mirtazapine and betahistine; assay type: in vivo, normal, health subjects; details: 6 weeks of therapy, healthy subjects
Description: The subjects receive 2 capsules per day, one in the morning and one at bedtime. […] In a different dosage range, the subjects receive 3 capsules per day, one in the morning, one at noon and one at bedtime. […] In a different dosage range, the subjects receive 2 capsules per day, one in the morning and one at bedtime. […] All medications are administered in an over-encapsulated format that ensures blinding of study participants, staff and investigators. All subjects are scheduled to receive a total of 6 weeks of therapy, and are required to return to the clinics after 1, 2, 4 and 6 weeks of therapy. Patients are required to complete paper self-assessments, electronic diary assessments, computer based cognitive testing, as well as vital signs and weight assessments at the clinic visits.

[5] = target: 5HT2A serotonin receptors (Homo sapiens, UniProt P28223); details: cited from earlier work
Chain of 5HT2A serotonin receptors (P28223 whole entry): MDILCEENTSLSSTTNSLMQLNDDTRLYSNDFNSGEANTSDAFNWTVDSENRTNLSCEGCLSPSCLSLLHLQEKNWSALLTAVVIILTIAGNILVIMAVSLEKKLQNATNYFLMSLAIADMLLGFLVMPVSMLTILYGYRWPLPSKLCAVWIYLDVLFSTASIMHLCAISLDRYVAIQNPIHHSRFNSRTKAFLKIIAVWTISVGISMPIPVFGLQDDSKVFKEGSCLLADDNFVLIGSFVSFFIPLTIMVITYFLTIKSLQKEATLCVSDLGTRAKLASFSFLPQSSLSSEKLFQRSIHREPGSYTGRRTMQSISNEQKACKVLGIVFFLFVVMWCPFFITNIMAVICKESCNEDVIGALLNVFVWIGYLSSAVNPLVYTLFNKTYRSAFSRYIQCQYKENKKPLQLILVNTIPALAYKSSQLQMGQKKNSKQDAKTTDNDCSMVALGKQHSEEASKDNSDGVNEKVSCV

[6] = target: T1, 5HT2C serotonin receptors (Homo sapiens, UniProt P28335); details: cited from earlier work
T1 sequence (P28335 33-458): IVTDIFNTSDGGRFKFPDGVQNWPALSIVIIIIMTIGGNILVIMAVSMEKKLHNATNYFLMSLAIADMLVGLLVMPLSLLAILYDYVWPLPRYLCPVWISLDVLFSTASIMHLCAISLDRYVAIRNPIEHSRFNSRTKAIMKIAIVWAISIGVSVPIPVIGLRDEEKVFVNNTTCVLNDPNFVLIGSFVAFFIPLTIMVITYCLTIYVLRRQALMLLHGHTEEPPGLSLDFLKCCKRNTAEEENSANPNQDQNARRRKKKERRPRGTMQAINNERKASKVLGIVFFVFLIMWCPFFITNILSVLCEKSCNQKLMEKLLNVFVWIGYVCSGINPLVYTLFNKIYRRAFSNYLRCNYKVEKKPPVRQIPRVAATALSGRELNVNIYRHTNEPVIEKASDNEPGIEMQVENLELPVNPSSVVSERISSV

[7] = test system: alpha-1 adrenergic receptors; details: cited from earlier work
[8] = test system: alpha-2 receptors; details: cited from earlier work
[9] = test system: 5HT2 receptors; details: cited from earlier work
[10] = target: norepinephrine reuptake (Homo sapiens, UniProt P23975); details: cited from earlier work
Chain of norepinephrine reuptake (P23975 whole entry): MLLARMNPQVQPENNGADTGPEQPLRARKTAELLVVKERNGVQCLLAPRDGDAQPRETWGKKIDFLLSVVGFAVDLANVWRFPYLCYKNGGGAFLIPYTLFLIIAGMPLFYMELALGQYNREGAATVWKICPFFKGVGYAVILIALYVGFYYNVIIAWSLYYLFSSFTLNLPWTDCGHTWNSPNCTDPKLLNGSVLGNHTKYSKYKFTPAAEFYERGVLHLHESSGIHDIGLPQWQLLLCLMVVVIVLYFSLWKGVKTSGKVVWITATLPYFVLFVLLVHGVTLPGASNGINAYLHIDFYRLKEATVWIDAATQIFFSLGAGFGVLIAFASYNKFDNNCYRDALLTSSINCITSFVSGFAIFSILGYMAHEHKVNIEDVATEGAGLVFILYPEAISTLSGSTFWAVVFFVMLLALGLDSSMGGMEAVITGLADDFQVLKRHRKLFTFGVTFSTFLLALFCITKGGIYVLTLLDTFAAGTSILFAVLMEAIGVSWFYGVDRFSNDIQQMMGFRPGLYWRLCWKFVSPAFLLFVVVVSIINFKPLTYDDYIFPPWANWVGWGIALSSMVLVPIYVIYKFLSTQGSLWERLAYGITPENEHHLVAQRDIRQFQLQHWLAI

[11] = target: T2, 5HT1A receptors (Homo sapiens, UniProt P08908); details: cited from earlier work
T2 sequence (P08908 1-422): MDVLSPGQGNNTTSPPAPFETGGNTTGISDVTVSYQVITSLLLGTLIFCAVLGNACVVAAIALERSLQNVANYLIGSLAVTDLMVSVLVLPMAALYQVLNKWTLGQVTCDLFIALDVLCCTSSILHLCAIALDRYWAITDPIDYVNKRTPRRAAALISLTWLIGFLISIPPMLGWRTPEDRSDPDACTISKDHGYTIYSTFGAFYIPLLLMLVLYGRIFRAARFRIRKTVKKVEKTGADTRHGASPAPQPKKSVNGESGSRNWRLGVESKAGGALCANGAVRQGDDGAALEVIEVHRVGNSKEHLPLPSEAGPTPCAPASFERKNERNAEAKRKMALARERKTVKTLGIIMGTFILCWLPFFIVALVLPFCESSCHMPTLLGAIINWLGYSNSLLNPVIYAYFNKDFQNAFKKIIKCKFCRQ

[12] = target: reuptake of dopamine (Homo sapiens, UniProt Q01959); details: cited from earlier work
Chain of reuptake of dopamine (Q01959 whole entry): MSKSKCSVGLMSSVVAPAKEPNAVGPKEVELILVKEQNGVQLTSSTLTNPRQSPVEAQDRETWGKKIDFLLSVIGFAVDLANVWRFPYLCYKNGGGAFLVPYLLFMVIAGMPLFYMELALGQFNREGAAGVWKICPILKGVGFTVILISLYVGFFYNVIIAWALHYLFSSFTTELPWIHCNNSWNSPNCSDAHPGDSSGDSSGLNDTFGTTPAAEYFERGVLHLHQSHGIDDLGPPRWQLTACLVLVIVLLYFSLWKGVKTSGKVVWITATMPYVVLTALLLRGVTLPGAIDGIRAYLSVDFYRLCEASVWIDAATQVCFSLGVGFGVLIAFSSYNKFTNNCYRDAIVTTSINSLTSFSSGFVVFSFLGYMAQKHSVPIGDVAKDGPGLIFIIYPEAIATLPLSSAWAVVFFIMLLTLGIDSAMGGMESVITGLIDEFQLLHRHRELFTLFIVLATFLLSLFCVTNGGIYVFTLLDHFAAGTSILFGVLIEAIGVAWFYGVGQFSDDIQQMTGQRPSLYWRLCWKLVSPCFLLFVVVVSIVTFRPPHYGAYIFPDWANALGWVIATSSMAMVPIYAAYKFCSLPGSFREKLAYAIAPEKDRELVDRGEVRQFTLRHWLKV

[13] = target: histamine H1 receptors (Homo sapiens, UniProt P35367); details: cited from earlier work
Chain of histamine H1 receptors (P35367 whole entry): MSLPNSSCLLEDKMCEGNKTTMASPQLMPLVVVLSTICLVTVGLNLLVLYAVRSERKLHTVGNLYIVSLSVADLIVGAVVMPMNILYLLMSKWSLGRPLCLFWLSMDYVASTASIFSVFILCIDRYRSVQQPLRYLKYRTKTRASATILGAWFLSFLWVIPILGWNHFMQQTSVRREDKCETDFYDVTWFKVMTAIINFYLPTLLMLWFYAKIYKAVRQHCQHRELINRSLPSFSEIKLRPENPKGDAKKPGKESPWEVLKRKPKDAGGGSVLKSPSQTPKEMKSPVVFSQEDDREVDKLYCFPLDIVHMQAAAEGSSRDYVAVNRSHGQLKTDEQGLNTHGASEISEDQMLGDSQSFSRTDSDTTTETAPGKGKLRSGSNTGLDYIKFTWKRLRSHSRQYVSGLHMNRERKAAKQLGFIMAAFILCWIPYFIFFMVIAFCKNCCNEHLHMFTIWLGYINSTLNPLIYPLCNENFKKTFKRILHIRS

[14] = target: reuptake of 5HT (Homo sapiens, UniProt P31645); details: cited from earlier work
Chain of reuptake of 5HT (P31645 whole entry): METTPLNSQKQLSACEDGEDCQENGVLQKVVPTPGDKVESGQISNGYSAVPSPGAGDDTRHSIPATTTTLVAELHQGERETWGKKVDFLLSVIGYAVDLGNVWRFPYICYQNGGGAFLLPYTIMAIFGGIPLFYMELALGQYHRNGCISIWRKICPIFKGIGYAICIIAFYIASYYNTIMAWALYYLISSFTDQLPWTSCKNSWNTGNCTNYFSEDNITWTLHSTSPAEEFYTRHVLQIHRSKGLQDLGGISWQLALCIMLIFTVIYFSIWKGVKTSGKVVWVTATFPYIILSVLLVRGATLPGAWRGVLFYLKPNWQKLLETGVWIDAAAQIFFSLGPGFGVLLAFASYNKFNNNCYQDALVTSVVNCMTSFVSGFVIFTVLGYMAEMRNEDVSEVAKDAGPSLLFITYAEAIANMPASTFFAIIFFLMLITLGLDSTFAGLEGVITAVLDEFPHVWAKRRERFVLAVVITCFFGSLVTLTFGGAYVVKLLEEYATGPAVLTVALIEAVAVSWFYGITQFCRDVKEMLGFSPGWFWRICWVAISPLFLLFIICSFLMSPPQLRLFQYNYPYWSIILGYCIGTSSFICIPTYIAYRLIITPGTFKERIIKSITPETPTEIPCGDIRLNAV

[15] = test system: muscarinic cholinergic receptors; details: cited from earlier work
[16] = target: T3, 5HT3 serotonin receptors (Homo sapiens, UniProt P46098); details: cited from earlier work
T3 sequence (P46098 24-478): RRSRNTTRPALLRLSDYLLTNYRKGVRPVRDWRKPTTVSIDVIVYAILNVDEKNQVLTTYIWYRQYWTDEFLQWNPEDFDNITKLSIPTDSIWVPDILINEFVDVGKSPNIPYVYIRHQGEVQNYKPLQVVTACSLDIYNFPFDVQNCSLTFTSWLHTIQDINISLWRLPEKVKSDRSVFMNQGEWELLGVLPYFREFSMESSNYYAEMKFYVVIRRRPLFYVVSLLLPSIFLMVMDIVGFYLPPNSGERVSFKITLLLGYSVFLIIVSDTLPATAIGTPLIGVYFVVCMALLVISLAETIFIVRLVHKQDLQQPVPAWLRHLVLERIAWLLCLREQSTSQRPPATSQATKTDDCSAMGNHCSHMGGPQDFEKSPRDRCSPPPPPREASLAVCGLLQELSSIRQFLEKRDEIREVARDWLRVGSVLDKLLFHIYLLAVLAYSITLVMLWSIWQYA

[17] = target: 5HT1B receptors (Homo sapiens, UniProt P28222); details: cited from earlier work
Chain of 5HT1B receptors (P28222 whole entry): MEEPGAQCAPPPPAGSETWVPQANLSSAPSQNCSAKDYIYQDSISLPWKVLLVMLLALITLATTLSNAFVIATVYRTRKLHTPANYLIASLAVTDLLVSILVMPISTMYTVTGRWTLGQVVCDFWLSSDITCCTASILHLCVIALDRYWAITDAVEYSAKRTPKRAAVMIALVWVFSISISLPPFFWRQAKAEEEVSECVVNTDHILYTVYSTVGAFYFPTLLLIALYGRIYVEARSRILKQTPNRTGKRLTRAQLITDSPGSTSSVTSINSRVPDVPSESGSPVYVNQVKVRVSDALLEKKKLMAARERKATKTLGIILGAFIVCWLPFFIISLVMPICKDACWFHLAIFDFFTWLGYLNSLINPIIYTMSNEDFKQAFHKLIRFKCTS

| SMILES | appetite increase reported, share of patients [1] [%] | weight gain of greater than or equal to 7% of body weight, share of patients [1] [%] | food intake [2] | satiety signaling [2] | blood-brain barrier passage [3] | side effects [4] | antagonist activity at 5HT2A serotonin receptors [5] | antagonist activity at 5HT2C serotonin receptors [6] | antagonist activity at alpha-1 adrenergic receptors [7] | antagonist activity at central alpha-2 receptors [8] | antagonist activity at 5HT2 receptors [9] | inhibition of norepinephrine reuptake [10] | affinity for the 5HT1A receptors [11] | effect on the reuptake of dopamine [12] | antagonist activity at histamine H1 receptors [13] | effect on the reuptake of 5HT [14] | antagonist activity at muscarinic cholinergic receptors [15] | antagonist activity at 5HT3 serotonin receptors [16] | affinity for the 5HT1B receptors [17] |
| --- | --- | --- | --- | --- | --- | --- | --- | --- | --- | --- | --- | --- | --- | --- | --- | --- | --- | --- | --- |
| CN(C)CCC=C1c2ccccc2CCc2ccccc21 [amitriptyline] | 6 | 5.9 | – | – | – | – | – | – | – | – | – | – | – | – | – | – | – | – | – |
| CNCCc1ccccn1 [betahistine, 2-[2-(methylamino)ethyl]pyridine] | – | – | marginally inhibit food intake | increase the satiety signaling | crosses the blood-brain barrier | causes insomnia, nausea/vomiting, and weight loss | – | – | – | – | – | – | – | – | – | – | – | – | – |
| CN1CCN2c3ncccc3Cc3ccccc3C2C1 (centres unmarked) [mirtazapine, 1,2,3,4,10,14b-hexahydro-2-methylpyrazino[2,1-a]pyrido[2,3-c]benzazepine] | – | – | – | – | – | does cause weight gain, sedation, and cognitive deficits | potent antagonist | potent antagonist | moderate; also recorded: weak antagonist | potent antagonist | potent antagonist | very weak inhibitor | lacks significant affinity | no effect | potent antagonist | no effect | moderate antagonist; also recorded: weak antagonist | potent antagonist | lacks significant affinity |
